From patent US4743677A, “Calcitonin gene related peptide derivatives” (Toyo Jozo Co., Ltd., priority 1985, dated 1988)

What was measured:
[1] = Isoelectric point (pI) of the purified peptide; format: physicochemical; conditions: purified product
[2] = Serum phosphorus level lowering effect in rats (method of Goldenberg et al.); format: in vivo; conditions: 80 μg/kg through tail vein, Wistar rats; for drop of serum phosphorus concentration compared with control group: blood at 30 and 60 minutes, control = dissolving solution only; for serum phosphorus concentration compared with h-CGRP administered group: versus h-CGRP 80 μg/kg
Experimental: (§1) h-CGRP, desalanyl-deamino-h-CGRP and desalanyl-[Asu^2,7 ] -h-CGRP, each 80 μg, were dissolved in 1 ml of a citrate buffer (pH 6.5) containing 0.1% of bovine serum albumin (hereinafter called "dissolving solution") and then administered to a group of 5-6 Wistar rats (80-90 g) at 80 μg/kg through their tail veins. Upon elapsed time of 30 minutes and 60 minutes, blood samples were collected from their abdominal descending aortas. The serum calcium concentrations were measured by atomic absorption spectrophotometry while the serum phosphorus concentrations were determined the method proposed by Goldenberg et al. [Clin Chem., 12, 871-882 (1966)] .

[3] = Serum calcium level lowering effect in rats (atomic absorption spectrophotometry); format: in vivo; conditions: 80 μg/kg through tail vein, Wistar rats; for drop of serum calcium concentration compared with control group: blood at 30 and 60 minutes, control = dissolving solution only; for serum calcium concentration compared with h-CGRP administered group: versus h-CGRP 80 μg/kg
Experimental: as §1

[4] = Stability in an aqueous solution; format: physicochemical

SMILES	pI [1]	drop of serum phosphorus concentration compared with control group [2]	serum phosphorus concentration compared with h-CGRP administered group [2]	drop of serum calcium concentration compared with control group [3]	serum calcium concentration compared with h-CGRP administered group [3]	stability in an aqueous solution [4]	activity exhibiting time (serum phosphorus lowering) compared with h-CGRP ([2]; 30 and 60 minutes)	activity exhibiting time (serum calcium lowering) compared with h-CGRP ([3]; 30 and 60 minutes)
CC(C)C[C@H](NC(=O)CNC(=O)[C@H](C)NC(=O)[C@H](CC(C)C)NC(=O)[C@H](CCCNC(=N)N)NC(=O)[C@H](Cc1c[nH]cn1)NC(=O)[C@@H](NC(=O)[C@@H](NC(=O)[C@@H]1CCCCCC(=O)N[C@@H](CC(=O)O)C(=O)N[C@@H]([C@@H](C)O)C(=O)N[C@@H](C)C(=O)N[C@@H]([C@@H](C)O)C(=O)N1)C(C)C)[C@@H](C)O)C(=O)N[C@@H](CC(C)C)C(=O)N[C@@H](CO)C(=O)N[C@@H](CCCNC(=N)N)C(=O)N[C@@H](CO)C(=O)NCC(=O)NCC(=O)N[C@H](C(=O)N[C@H](C(=O)N[C@@H](CCCCN)C(=O)N[C@@H](CC(N)=O)C(=O)N[C@@H](CC(N)=O)C(=O)N[C@@H](Cc1ccccc1)C(=O)N[C@H](C(=O)N1CCC[C@H]1C(=O)N[C@H](C(=O)N[C@@H](CC(N)=O)C(=O)N[C@H](C(=O)NCC(=O)N[C@@H](CO)C(=O)N[C@@H](CCCCN)C(=O)N[C@@H](C)C(=O)N[C@@H](Cc1ccccc1)C(N)=O)C(C)C)[C@@H](C)O)C(C)C)C(C)C)C(C)C [desalanyl-[Asu^2,7]-h-CGRP]	≥ 10.25	about 20%	dropped with significance	about 20%	dropped with significance	extremely good stability	–	–
CC(C)C[C@H](NC(=O)CNC(=O)[C@H](C)NC(=O)[C@H](CC(C)C)NC(=O)[C@H](CCCNC(=N)N)NC(=O)[C@H](Cc1c[nH]cn1)NC(=O)[C@@H](NC(=O)[C@@H](NC(=O)[C@@H]1CSSCCC(=O)N[C@@H](CC(=O)O)C(=O)N[C@@H]([C@@H](C)O)C(=O)N[C@@H](C)C(=O)N[C@@H]([C@@H](C)O)C(=O)N1)C(C)C)[C@@H](C)O)C(=O)N[C@@H](CC(C)C)C(=O)N[C@@H](CO)C(=O)N[C@@H](CCCNC(=N)N)C(=O)N[C@@H](CO)C(=O)NCC(=O)NCC(=O)N[C@H](C(=O)N[C@H](C(=O)N[C@@H](CCCCN)C(=O)N[C@@H](CC(N)=O)C(=O)N[C@@H](CC(N)=O)C(=O)N[C@@H](Cc1ccccc1)C(=O)N[C@H](C(=O)N1CCC[C@H]1C(=O)N[C@H](C(=O)N[C@@H](CC(N)=O)C(=O)N[C@H](C(=O)NCC(=O)N[C@@H](CO)C(=O)N[C@@H](CCCCN)C(=O)N[C@@H](C)C(=O)N[C@@H](Cc1ccccc1)C(N)=O)C(C)C)[C@@H](C)O)C(C)C)C(C)C)C(C)C [desalanyl-deamino-h-CGRP]	≥ 10.25	about 20%	dropped with significance	about 20%	dropped with significance	–	prolonged	prolonged
